Experiment [1] deals with T1, glutathione S-transferase (GST)-linked full-length human Syk protein (Homo sapiens, UniProt P43405).
T1 construct: glutathione S-transferase (GST)-linked full-length human Syk protein; purchased Carna Biosciences; host or cells: Baculovirus expression system
In words: Syk enzyme assay. The experiment is classed as biochemical. The following applies: 0.83 nM Syk, time-resolved fluorescence; read-out: IC50 of Syk-inhibitory activity. The gist of the method: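 Phosphotyrosine on a biotin-peptide substrate (0.5 μM) was read by time-resolved fluorescence at 615 and 665 nm with Eu-anti-pTyr antibody and APC-streptavidin after 1 h EDTA stop.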

Experiment [2] relates to THP-1 cells (TNFα secretion on human IgG-coated plate). In words: TNFα generation assay. The following applies: IFN-γ differentiated THP-1 cells, 7 hours, AlphaLISA, read-out: IC50 of TNFα generation inhibitory activity. The experiment is classed as cell-based. The gist of the method: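 Secreted TNFα was measured by AlphaLISA after 7 h of culture on human IgG-coated wells (coating at 10 μg/ml), with 5×10^4 cells/well. Before plating, the cells had been treated with compound for 30 min at room temperature. The cells were macrophage-like THP-1, produced by a 2-day exposure to 10 ng/ml IFN-γ.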

Consider `COc1nn(C)c2ncc(Nc3nc(N[C@@H]4CCOC[C@@H]4N)c(F)cc3C(N)=O)cc12` [Example 2-334, 6-(((3R,4R)-3-aminotetrahydro-2H-pyran-4-yl)amino)-5-fluoro-2-((3-methoxy-1-methyl-1H-pyrazolo[3,4-b]pyridin-5-yl)amino)nicotinamide], for which the IC50 is less than 0.01 µM in experiment [1] and 0.13 to 0.2 µM in experiment [2].

For `COCCn1ncc2c(Nc3nc(N[C@H](C4CC4)[C@H](C)N)c(F)cc3C(N)=O)cc(F)cc21` [Example 2-377, 6-(((1R,2S)-2-amino-1-cyclopropylpropyl)amino)-5-fluoro-2-((6-fluoro-1-(2-methoxyethyl)-1H-indazol-4-yl)amino)nicotinamide], the figures for the IC50 in experiment [1] and in experiment [2] were less than 0.01 µM and 0.065 to 0.13 µM, respectively.

For the compound `CC[C@@H](Nc1nc(Nc2ccc3c(c2)c(OC)nn3CCOC)c(C(N)=O)cc1F)[C@H](C)N` [Example 2-125, 6-(((2S,3R)-2-aminopentan-3-yl)amino)-5-fluoro-2-((3-methoxy-1-(2-methoxyethyl)-1H-indazol-5-yl)amino)nicotinamide], the results for the IC50 in experiment [1] and in experiment [2] were less than 0.01 µM and 0.065 to 0.13 µM, respectively.

Consider `CNc1nn(C)c2ccc(Nc3nc(N[C@@H]4CCCC[C@@H]4N)c(F)cc3C(N)=O)cc12` [Example 2-496, 6-(((1R,2S)-2-aminocyclohexyl)amino)-5-fluoro-2-((1-methyl-3-(methylamino)-1H-indazol-5-yl)amino)nicotinamide], for which the IC50 in experiment [1] is less than 0.01 µM; in experiment [2], 0.13 to 0.2 µM.

Take `CC[C@H](N)[C@@H](C)Nc1nc(Nc2cnc(C)c(-n3nccn3)c2)c(C(N)=O)cc1F` [Example 2-33, 6-(((2R,3S)-3-aminopentan-2-yl)amino)-5-fluoro-2-((6-methyl-5-(2H-1,2,3-triazol-2-yl)pyridin-3-yl)amino)nicotinamide]: the IC50 is 0.01 to 0.05 µM in experiment [1] and 0.13 to 0.2 µM in experiment [2].

For the compound `CNc1ncc(Nc2nc(N[C@@H]3CCCC[C@@H]3N)c(F)cc2C(N)=O)cc1F` [Example 2-273, 6-(((1R,2S)-2-aminocyclohexyl)amino)-5-fluoro-2-((5-fluoro-6-(methylamino)pyridin-3-yl)amino)nicotinamide], the IC50 was less than 0.01 µM in experiment [1] and 0.065 to 0.13 µM in experiment [2].

Regarding `CC[C@H](N)[C@H](Nc1nc(Nc2cncc(-n3cccn3)c2)c(C(N)=O)cc1F)C1CC1` [Example 2-366, 2-((5-(1H-pyrazol-1-yl)pyridin-3-yl)amino)-6-(((1R,2S)-2-amino-1-cyclopropylbutyl)amino)-5-fluoronicotinamide], the IC50 is 0.01 to 0.05 µM in experiment [1] and 0.13 to 0.2 µM in experiment [2].

As to `C[C@H](N)[C@H](Nc1nc(Nc2cncc(-n3cccn3)c2)c(C(N)=O)cc1F)C1CCC1` [Example 2-24, 2-((5-(1H-pyrazol-1-yl)pyridin-3-yl)amino)-6-(((1R,2S)-2-amino-1-cyclobutylpropyl)amino)-5-fluoronicotinamide], the IC50 was less than 0.01 µM in experiment [1] and 0.13 to 0.2 µM in experiment [2].

For `CC[C@@H](Nc1nc(Nc2cc(F)c3c(c2)c(N(C)C)nn3C)c(C(N)=O)cc1F)[C@H](C)N` [Example 2-186, 6-(((2S,3R)-2-aminopentan-3-yl)amino)-2-((3-(dimethylamino)-7-fluoro-1-methyl-1H-indazol-5-yl)amino)-5-fluoronicotinamide], the results for the IC50 in experiment [1] and in experiment [2] were less than 0.01 µM and 0.065 to 0.13 µM, respectively.

As for `CCCC[C@@H](Nc1nc(Nc2ccc3c(c2)c(OC)nn3C)c(C(N)=O)cc1F)[C@H](C)N` [Example 2-83, 6-(((2S,3R)-2-aminoheptan-3-yl)amino)-5-fluoro-2-((3-methoxy-1-methyl-1H-indazol-5-yl)amino)nicotinamide], the IC50 in experiment [1] is less than 0.01 µM; in experiment [2], 0.13 to 0.2 µM.

With `COc1cc(Nc2nc(N[C@H](C)[C@@H](N)C3CC3)c(F)cc2C(N)=O)cc(OC)c1` [Example 2-229, 6-(((1S,2R)-1-amino-1-cyclopropylpropan-2-yl)amino)-2-((3,5-dimethoxyphenyl)amino)-5-fluoronicotinamide], the IC50 in experiment [1] was in the range of 0.01 to 0.05 µM; in experiment [2], 0.13 to 0.2 µM.

Regarding `CC[C@@H](Nc1nc(Nc2cc(F)c3c(c2)c(OC)nn3C)c(C(N)=O)cc1F)[C@H](C)N` [Example 2-152, 6-(((2S,3R)-2-aminopentan-3-yl)amino)-5-fluoro-2-((7-fluoro-3-methoxy-1-methyl-1H-indazol-5-yl)amino)nicotinamide], the results for the IC50 in experiment [1] and in experiment [2] were less than 0.01 µM and 0.13 to 0.2 µM, respectively.

Take `CC[C@@H](Nc1nc(Nc2cccc(-n3ccnn3)c2)c(C(N)=O)cc1F)[C@H](C)N` [Example 2-476, 2-((3-(1H-1,2,3-triazol-1-yl)phenyl)amino)-6-(((2S,3R)-2-aminopentan-3-yl)amino)-5-fluoronicotinamide]: the IC50 in experiment [1] was less than 0.01 µM; in experiment [2], 0.065 to 0.13 µM.

As to `COc1cc(Nc2nc(N[C@H](C3CCC3)[C@H](C)N)c(F)cc2C(N)=O)cc(OC)n1` [Example 2-6, 6-(((1R,2S)-2-amino-1-cyclobutylpropyl)amino)-2-((2,6-dimethoxypyridin-4-yl)amino)-5-fluoronicotinamide], the IC50 in experiment [1] is less than 0.01 µM; in experiment [2], 0.13 to 0.2 µM.

Consider `CC[C@@H](Nc1nc(Nc2ccc(C)c(C)c2)c(C(N)=O)cc1F)[C@H](C)N` [Example 2-477, 6-(((2S,3R)-2-aminopentan-3-yl)amino)-2-((3,4-dimethylphenyl)amino)-5-fluoronicotinamide], for which the values for the IC50 in experiment [1] and in experiment [2] were less than 0.01 µM and 0.13 to 0.2 µM, respectively.

Consider `COc1nn(C)c2ncc(Nc3nc(N[C@H](CC(C)C)[C@H](C)N)c(F)cc3C(N)=O)cc12` [Example 2-255, 6-(((2S,3R)-2-amino-5-methylhexan-3-yl)amino)-5-fluoro-2-((3-methoxy-1-methyl-1H-pyrazolo[3,4-b]pyridin-5-yl)amino)nicotinamide], for which the values for the IC50 in experiment [1] and in experiment [2] were less than 0.01 µM and 0.13 to 0.2 µM, respectively.

Consider `Cc1nn(C)c2ncc(Nc3nc(N[C@@H](CN)CC(C)C)c(F)cc3C(N)=O)cc12` [Example 2-240, (R)-6-((1-amino-4-methylpentan-2-yl)amino)-2-((1,3-dimethyl-1H-pyrazolo[3,4-b]pyridin-5-yl)amino)-5-fluoronicotinamide], for which the IC50 was less than 0.01 µM in experiment [1] and 0.13 to 0.2 µM in experiment [2].

On to `Cc1cc(C)cc(Nc2nc(N[C@H](C3CCC3)[C@H](C)N)c(F)cc2C(N)=O)c1` [Example 2-26, 6-(((1R,2S)-2-amino-1-cyclobutylpropyl)amino)-2-((3,5-dimethylphenyl)amino)-5-fluoronicotinamide], for which the IC50 was less than 0.01 µM in experiment [1] and 0.13 to 0.2 µM in experiment [2].

For the compound `CC[C@@H](Nc1nc(Nc2cccc(C)c2)c(C(N)=O)cc1F)[C@H](C)N` [Example 2-474, 6-(((2S,3R)-2-aminopentan-3-yl)amino)-5-fluoro-2-(m-tolylamino)nicotinamide], the results for the IC50 in experiment [1] and in experiment [2] were less than 0.01 µM and 0.13 to 0.2 µM, respectively.

Regarding `CC[C@@H](Nc1nc(Nc2cncc(-n3cc(C)cn3)c2)c(C(N)=O)cc1F)[C@H](C)N` [Example 2-521, 6-(((2S,3R)-2-aminopentan-3-yl)amino)-5-fluoro-2-((5-(4-methyl-1H-pyrazol-1-yl)pyridin-3-yl)amino)nicotinamide], the IC50 in experiment [1] was in the range of 0.01 to 0.05 µM; in experiment [2] it was 0.065 to 0.13 µM.

Regarding `C[C@H](N)[C@H](Nc1nc(Nc2cccc3ncccc23)c(C(N)=O)cc1F)C1CC1` [Example 2-404, 6-(((1R,2S)-2-amino-1-cyclopropylpropyl)amino)-5-fluoro-2-(quinolin-5-ylamino)nicotinamide], the results for the IC50 in experiment [1] and in experiment [2] were less than 0.01 µM and 0.065 to 0.13 µM, respectively.

`COc1nn(C)c2ncc(Nc3nc(N[C@H](C4CC4)[C@H](C)N)c(F)cc3C(N)=O)cc12` [Example 2-253, 6-(((1R,2S)-2-amino-1-cyclopropylpropyl)amino)-5-fluoro-2-((3-methoxy-1-methyl-1H-pyrazolo[3,4-b]pyridin-5-yl)amino)nicotinamide]: the results for the IC50 in experiment [1] and in experiment [2] were less than 0.01 µM and 0.065 to 0.13 µM, respectively.

In the case of `CC[C@@H](Nc1nc(Nc2cccc(-n3nccn3)c2)c(C(N)=O)cc1F)[C@H](C)N` [Example 2-475, 2-((3-(2H-1,2,3-triazol-2-yl)phenyl)amino)-6-(((2S,3R)-2-aminopentan-3-yl)amino)-5-fluoronicotinamide], the results for the IC50 in experiment [1] and in experiment [2] were less than 0.01 µM and 0.065 to 0.13 µM, respectively.

For `CCn1ncc2cc(Nc3nc(N[C@H](c4ccccn4)[C@H](C)N)c(F)cc3C(N)=O)ccc21` [Example 2-381], the IC50 in experiment [1] is less than 0.01 µM; in experiment [2] it was 0.065 to 0.13 µM.

For `COCCn1nc(C)c2cc(Nc3nc(N[C@H](CC(C)C)[C@H](C)N)c(F)cc3C(N)=O)ccc21` [Example 2-134, 6-(((2S,3R)-2-amino-5-methylhexan-3-yl)amino)-5-fluoro-2-((1-(2-methoxyethyl)-3-methyl-1H-indazol-5-yl)amino)nicotinamide], the values for the IC50 in experiment [1] and in experiment [2] were less than 0.01 µM and 0.13 to 0.2 µM, respectively.

As to `COc1nn(C)c2c(F)cc(Nc3nc(N[C@@H](CN)CC(C)C)c(F)cc3C(N)=O)cc12` [Example 2-151, (R)-6-((1-amino-4-methylpentan-2-yl)amino)-5-fluoro-2-((7-fluoro-3-methoxy-1-methyl-1H-indazol-5-yl)amino)nicotinamide], the IC50 is less than 0.01 µM in experiment [1] and 0.13 to 0.2 µM in experiment [2].

`C[C@H](N)[C@H](Nc1nc(Nc2cnc(N3CCOCC3)c(F)c2)c(C(N)=O)cc1F)c1cccs1` [Example 2-508, 6-(((1S,2S)-2-amino-1-(thiophen-2-yl)propyl)amino)-5-fluoro-2-((5-fluoro-6-morpholinopyridin-3-yl)amino)nicotinamide]: the figures for the IC50 in experiment [1] and in experiment [2] were less than 0.01 µM and 0.065 to 0.13 µM, respectively.

The values above are taken from patent publication US9051310B2, “Nicotinamide derivative or salt thereof” (FUJIFILM Corporation, priority 2011, dated 2015).
